Source: BindingDB's records for doi:10.1016/j.bmcl.2007.06.023 (Merck Frosst Centre For Therapeutic Research, 2007)
pIC50: −log10 of the molar value.

What was measured:
Assay in all cases: Enzyme Inhibition Assay
Cathepsin K = biological target: T1, Cathepsin K (Oryctolagus cuniculus, UniProt P43236)
T1 sequence (P43236 whole entry): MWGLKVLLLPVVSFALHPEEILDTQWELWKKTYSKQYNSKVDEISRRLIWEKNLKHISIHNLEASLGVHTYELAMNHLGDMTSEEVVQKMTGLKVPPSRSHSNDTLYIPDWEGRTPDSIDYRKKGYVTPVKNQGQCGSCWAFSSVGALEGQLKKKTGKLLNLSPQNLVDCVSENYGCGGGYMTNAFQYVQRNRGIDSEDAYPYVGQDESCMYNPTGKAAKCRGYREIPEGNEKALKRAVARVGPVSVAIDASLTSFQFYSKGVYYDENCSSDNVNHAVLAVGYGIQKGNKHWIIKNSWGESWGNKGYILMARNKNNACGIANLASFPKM
Protocol: (§1) Prior to the addition of substrate, different concentrations of the inhibitor ranging from 100 uM to 0.2 nM were preincubated for 15 min with enzyme to allow the establishment of the enzyme-inhibitor complex. The proteolytic cleavage of N-acyl aminocoumarins by cathepsins was conducted in 96-well plate format and the plate read using a Spectramax (Molecular Devices) plate reader. The excitation wavelength was 355 nm and the emission wavelength was 460 nm for peptidyl-AMC substrates. The percent inhibition of the reaction was calculated from a control reaction containing only vehicle. IC50 curves were generated by fitting percent inhibition values to a four parameter logistic model (SOFTMAX PRO, Molecular Devices).

Cathepsin S = Cathepsin S (Homo sapiens, UniProt P25774); details: pH 6.5; 22 °C
Protocol: as §1

Procathepsin L = Procathepsin L (Homo sapiens, UniProt P07711)
Protocol: as §1

Cathepsin S, sequence (P25774 whole entry): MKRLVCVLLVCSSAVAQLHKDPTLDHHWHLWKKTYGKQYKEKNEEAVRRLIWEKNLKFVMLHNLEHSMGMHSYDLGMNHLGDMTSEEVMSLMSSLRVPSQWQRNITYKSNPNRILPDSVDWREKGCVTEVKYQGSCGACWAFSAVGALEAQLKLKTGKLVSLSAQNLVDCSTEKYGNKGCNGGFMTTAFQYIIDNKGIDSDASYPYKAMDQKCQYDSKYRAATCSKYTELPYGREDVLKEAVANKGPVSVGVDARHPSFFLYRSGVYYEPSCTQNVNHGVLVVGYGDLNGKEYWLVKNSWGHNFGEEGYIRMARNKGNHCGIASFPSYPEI
Procathepsin L, sequence (P07711 whole entry): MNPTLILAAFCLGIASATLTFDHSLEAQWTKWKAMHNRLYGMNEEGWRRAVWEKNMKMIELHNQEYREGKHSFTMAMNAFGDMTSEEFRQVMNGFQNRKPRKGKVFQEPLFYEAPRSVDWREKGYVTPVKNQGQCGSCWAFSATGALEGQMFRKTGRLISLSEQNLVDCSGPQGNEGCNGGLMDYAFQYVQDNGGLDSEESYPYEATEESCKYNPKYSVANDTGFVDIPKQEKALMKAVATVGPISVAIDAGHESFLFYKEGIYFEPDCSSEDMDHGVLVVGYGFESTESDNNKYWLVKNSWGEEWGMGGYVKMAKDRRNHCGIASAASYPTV

| Compound | pIC50 (Cathepsin K) | pIC50 (Cathepsin S) | pIC50 (Procathepsin L) |
| --- | --- | --- | --- |
| CC(C)C[C@@H](NC(=O)N1CCOCC1)C(=O)N[C@@H](C=CS(=O)(=O)c1ccccc1)CCc1ccccc1 | 8.21 | 8.92 | – |
| CC(C)(c1ccc(F)cc1)S(=O)(=O)C[C@H](N[C@@H](c1ccc(F)cc1)C(F)(F)F)C(=O)NC1(C#N)CC1 [(2R)-N-(1-cyanocyclopropyl)-3-{[2-(4-fluorophenyl)propane-2-]sulfonyl}-2-{[(1S)-2,2,2-trifluoro-1-(4-fluorophenyl)ethyl]amino}propanamide] | < 5.00 | – | – |
| N#CC1(NC(=O)[C@H](CS(=O)(=O)Cc2cccc(F)c2F)N[C@@H](c2ccc(F)cc2)C(F)(F)F)CC1 [(2R)-N-(1-cyanocyclopropyl)-3-{[(2,3-difluorophenyl)methane]sulfonyl}-2-{[(1S)-2,2,2-trifluoro-1-(4-fluorophenyl)ethyl]amino}propanamide] | < 5.00 | – | – |
| N#CC1(NC(=O)[C@H](CS(=O)(=O)Cc2cccc(F)c2F)N[C@@H](c2ccccc2)C(F)(F)F)CC1 [(2R)-N-(1-cyanocyclopropyl)-3-{[(2,3-difluorophenyl)methane]sulfonyl}-2-{[(1S)-2,2,2-trifluoro-1-phenylethyl]amino}propanamide] | < 5.00 | – | – |
| N#CC1(NC(=O)[C@H](CS(=O)(=O)Cc2c(Cl)cccc2Cl)N[C@@H](c2ccc(F)cc2)C(F)(F)F)CC1 [(2R)-N-(1-cyanocyclopropyl)-3-{[(2,6-dichlorophenyl)methane]sulfonyl}-2-{[(1S)-2,2,2-trifluoro-1-(4-fluorophenyl)ethyl]amino}propanamide] | < 5.00 | 9.15 | 6.60 |
| N#CC1(NC(=O)[C@H](CS(=O)(=O)Cc2ccccc2-c2ccccc2)N[C@@H](c2ccc(F)cc2)C(F)(F)F)CC1 [(2R)-N-(1-cyanocyclopropyl)-3-{[(2-phenylphenyl)methane]sulfonyl}-2-{[(1S)-2,2,2-trifluoro-1-(4-fluorophenyl)ethyl]amino}propanamide] | < 5.00 | – | – |
| N#CC1(NC(=O)[C@H](CS(=O)(=O)Cc2ccc(F)cc2)N[C@@H](c2ccccc2)C(F)(F)F)CC1 [(2R)-N-(1-cyanocyclopropyl)-3-{[(4-fluorophenyl)methane]sulfonyl}-2-{[(1S)-2,2,2-trifluoro-1-phenylethyl]amino}propanamide] | < 5.00 | – | – |
